# Reference: ChEMBL document CHEMBL1153534, “Design and synthesis of androgen receptor antagonists with bulky side chains for overcoming antiandrogen resistance” (J Med Chem, 2009)
# The source made the active and inactive calls. The calls are words filed in the database; no cut-off is given here.
# Legend:
# Assay type in all cases: functional, cell-based
# [1] = tested on: PC-3; experiment: Cytotoxicity against human PC3 cells at 150 uM after 72 hrs by MTT assay
# [2] = tested on: LNCaP; experiment: Cytotoxicity against human LNCAP cells after 72 hrs by MTT assay
# [3] = tested on: PC-3; experiment: Cytotoxicity against human PC3 cells after 72 hrs by MTT assay
# [4] = Cytotoxicity against human C4-2B cells after 72 hrs by MTT assay; conditions: LNCaP C4-2B
# [5] = tested on: CWR22R; experiment: Cytotoxicity against human 22Rv1 cells after 72 hrs by MTT assay; conditions: 22Rv1, 72 h
# [6] = Cytotoxicity against human MDA PCa 2b cells after 72 hrs by MTT assay
# [7] = Homo sapiens, PC-3, 72 h, read-out: IC50
Compound,Activity [1],IC50 [2],IC50 ([3]; pc-3),"IC50 [3, 7]",IC50 [4],IC50 [5],IC50 [6]
CC(=O)/C=C/C1=C(C)CCCC1(C)C [BETA-IONONE],inactive,151 µM,Not Active,,,,
COc1ccc(/C=C/C(O)=C/C(=O)/C=C/C2=C(C)CCCC2(C)C)cn1,,25.1 µM,,52.2 µM,,,
COc1cc(/C=C/C(O)=C/C(=O)/C=C/C2=C(C)CCCC2(C)C)cc(OC)c1OC,,21.4 µM,,> 50 µM,11.9 µM,17.1 µM,
COc1ccc(/C=C/C(O)=C/C(=O)/C=C/C2=C(C)CCCC2(C)C)cc1O,,25.9 µM,,38.3 µM,23.1 µM,,
CC1=C(/C=C/C(=O)/C(=C\c2ccc(O)cc2)C(=O)/C=C/c2ccc(O)cc2)C(C)(C)CCC1,,4.5 µM,,6.7 µM,4 µM,4.7 µM,4.7 µM
CCOc1ccc(/C=C(\C(=O)/C=C/C2=C(C)CCCC2(C)C)C(=O)/C=C/c2ccc(OCC)c(OCC)c2)cc1OCC,,14.9 µM,,14.1 µM,4.5 µM,9.3 µM,6.8 µM
COc1cc(/C=C(\C(=O)/C=C/C2=C(C)CCCC2(C)C)C(=O)/C=C/c2cc(OC)c(O)c(OC)c2)cc(OC)c1O,,8.7 µM,,12.5 µM,8.5 µM,17.6 µM,15.3 µM
COc1cc(/C=C/C(O)=C/C(=O)/C=C/C2=C(C)CCCC2(C)C)ccc1O,,20.6 µM,,15.8 µM,44.3 µM,10.6 µM,
COc1cc(/C=C/C(=O)/C(=C/c2ccc3ccccc3n2)C(=O)/C=C/C2=C(C)CCCC2(C)C)ccc1O,,8.5 µM,,15.2 µM,5.3 µM,5.1 µM,
CCn1c2ccccc2c2cc(/C=C(\C(=O)/C=C/C3=C(C)CCCC3(C)C)C(=O)/C=C/c3ccc(O)c(OC)c3)ccc21,,2.3 µM,,7 µM,2.3 µM,2.4 µM,8.1 µM
COc1cc(/C=C/C(=O)CC(=O)/C=C/c2ccc(O)c(OC)c2)ccc1O [CURCUMIN],,8.5 µM,,16.8 µM,6.1 µM,18.3 µM,
COc1cc(/C=C/C(O)=C/C(=O)/C=C/C2=C(C)CCCC2(C)C)cc(OC)c1O,,6.2 µM,,26.7 µM,9.8 µM,12.2 µM,
